Measured values taken from PubChem BioAssay AID179 (DTP/NCI, 2004).
pEC50, pIC50: −log10 of the molar value. Values joined by “and” are separate entries in the source; they are usually repeats but may differ in a detail not shown here. Equal entries are not always repeated. Active and inactive are the calls of the source.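 Rule for the calls: active = compounds giving half or more protection of infected cells from virus-caused growth loss, again on retest; inactive = the rest.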

Tested on: CEM cells HIV-1 protection, formazan growth assay
Experiment: NCI AIDS Antiviral Assay
Conditions: for pIC50: measured here: growth of uninfected CEM cells
Method in brief: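 Human CEM cells, uninfected and HIV-1-infected, received five drug concentrations, and growth was read by soluble formazan assay. Compounds giving at least 50% protection were retested; reproducible 100% protection defined confirmed active.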

Structure (SMILES)	pEC50	pIC50	outcome
CC(=O)NNC(=S)N/C=C/c1c(C)ccc([N+](=O)[O-])c1[N+](=O)[O-]	< 3.70	4.38	
CCCCCCCCCCNCCSSCc1ccc(Cl)cc1			inactive
CC1=C(C(=O)CC(=O)C(=O)Nc2ccc(Cl)cc2C)Sc2ccccc2N1	< 3.93	< 3.93	
Cn1c(=O)c2nc(-c3ccccc3)nnc2n(C)c1=O	< 3.70	4.03	
O=C1c2ccccc2C(=O)C2C3c4ccccc4C(c4ccccc43)C12 (configuration not stated)	< 4.81	< 4.81	
COC(OC)c1c2c(O)c3c(O)c(C)c4c(c3c1O)C(=O)C(C)(O/C=C/C(OC)C(C)C(OC(C)=O)C(C)C(O)C(C)C(O)C(C)/C=C/C=C(/C)C(=O)N2)O4 (configuration not stated)	< 3.70	4.60	
Cc1cccc(C)c1NC(=O)CCC/C(CC(=O)c1ccc(F)cc1)=N\NC(=O)C(=O)NN	< 3.83	< 3.83	
S=C1CC(N2CCCC2)=Nc2ccccc2N1	< 3.70	< 3.70	
NC(=O)c1ccc(N=Nc2c(O)c3ccccc3[nH]c2=O)cc1	< 3.70	< 3.70	
CC(=O)OC1C=CN(C(C)=O)C(SC(C)(C)C)C1(C)O (configuration not stated)	< 3.70	< 3.70	
O=c1oc2ccccc2c(O)c1C(c1cccs1)c1c(O)c2ccccc2oc1=O	< 3.70	4.52	
O=c1oc2ccccc2c(O)c1C1=N/C(=N/N=C/c2ccc(Cl)cc2)SC1	< 3.70	< 3.70	
COC(=O)/C=C(/C)n1nc2ccccc2n1	< 3.70	< 3.70	
NC(N)=N/N=C/c1c(Cl)nc2sccn12	< 3.70	4.42	
Cc1cn(CC2=NC3CCCCC3N2)c(=O)[nH]c1=O (configuration not stated)	< 3.70	< 3.70	
O=c1[nH]c2ccccc2n1C1CCN(CCOc2ccccc2)CC1	< 3.70	4.63	
N=[N+]=CC(=O)OCC(N)C(=O)O (configuration not stated)	< 3.70	5.54	
O=C(O)CCC1NC(/C(=C/c2ccccc2O)NC(=O)c2ccccc2)OC1=O (configuration not stated)	< 3.82	< 3.82	
S=P1(Oc2ccccc2)OCCO1	< 3.21	< 3.21	
N#Cc1c(-c2ccccc2)cc(-c2ccccc2)n(C2OC(CO)C(O)C(O)C2O)c1=S (configuration not stated)	< 3.70	4.82 and 4.57	
CNC1=C(C)C(=O)C(=O)C([C@H](C)CCC=C(C)C)=C1O	< 3.70	5.21	
CC(C)(C)C1=CC(=Nc2c([N+](=O)[O-])cc([N+](=O)[O-])cc2[N+](=O)[O-])C=C(C(C)(C)C)C1=O	< 4.94	< 4.94	

Structure (SMILES)	pEC50	pIC50	outcome
O=C1c2cccc(NCCNCCO)c2C(=O)c2cccc(NCCNCCO)c21			inactive
CC[C@H](CCCCC1CC[C@@H]2CC(=O)C[C@H]12)OC (some centres not stated)	< 3.70	< 3.70	
ClC(Cl)(Cl)C1CCOC1n1nnc2ccccc21 (configuration not stated)			inactive
O=S(=O)(c1ccccc1)C1(C2(S(=O)(=O)c3ccccc3)CCN=N2)CCN=N1 (configuration not stated)			inactive
COc1ccc(C(=O)/C=C/c2ccc(OCCCCCCCCCCOc3ccc(/C=C/C(=O)c4ccc(OC)cc4)cc3)cc2)cc1	< 3.70	< 3.70	
O=NN1C(c2ccccc2)CCCC1c1ccccc1 (configuration not stated)	< 4.29	< 4.29	
CN(C)c1c(-c2ccc(Cl)cc2)cc(-c2ccccc2)[nH]c1=O	< 4.68	< 4.68	
O=P(Nc1cccc(Cl)c1)(Oc1ccccc1)N(CCCl)CCCl (configuration not stated)	< 4.75	5.19	
CC(=O)NC(CCCCNC(=O)N(C)N=O)C(=O)NCc1ccccc1 (configuration not stated)	< 3.16	3.85	
COc1ccc(OC(C(=O)O)c2ccccc2)c2c1CCCC2=O (configuration not stated)			inactive
C=CC1(c2ccc(-c3ccccc3)cc2)OCCO1	< 3.70	4.09	
NN1CCOC1=O	< 3.70	< 3.70	
CCOP(=O)(OCC)C1CC(O)CN1OC(=O)C(C)(C)C (configuration not stated)	< 3.70	< 3.70	
O=C(CCC[n+]1ccccc1)CC(O)(C(F)(F)F)C(F)(F)F	< 3.70	< 3.70	
O=C1CSC(c2cccc(Cl)c2)N1c1ccc(-n2c(-c3ccccc3)nc3ccccc3c2=O)cc1 (configuration not stated)	< 3.70	3.86	
Cn1c(=O)c2nc3sc4ccccc4c(=N)n3c2n(C)c1=O	< 4.38	< 4.38	
CCc1cccc(CC)c1Nc1nc(-c2ccccc2-c2ccccc2)cs1	< 3.70	< 3.70	
Cn1cnc([N+](=O)[O-])c1Sc1nc2ccc([N+](=O)[O-])cc2[nH]1	< 4.09	5.11	
N#C/C(=C\c1ccc(-c2ccccc2)cc1)c1ccccc1	< 3.70	3.77	
NC(N)=NNC(=O)CCn1[nH]c(=O)c(Cl)c(Cl)c1=O	< 3.09	< 3.09	
CN(CC(=O)O)S(=O)(=O)c1ccc(F)cc1			inactive
CN1C(=O)c2ccccc2C1(N)c1ccccc1 (configuration not stated)	3.18	3.06	

Structure (SMILES)	pEC50	pIC50	outcome
CC(C)=[CH][Sb]([Br])([CH]=C(C)C)([CH]=C(C)C)[c]1ccccc1	< 3.25	5.17	
Cc1nc2ccccc2c(-n2cccn2)c1CCn1cccn1	< 3.70	4.03	
COc1ccc2c3c([nH]c(=O)c2c1C(=O)O)-c1ccccc1CC3	< 4.79	< 4.79	
O=c1cc2oc3cc(O)c(O)cc3c(-c3ccccc3)c-2cc1O	< 3.70	4.40 and 4.08	
Nc1nncs1	< 2.75	3.06	
COC1(C)OC23C(=O)N(C)C(=O)N(C)C2(O1)N(C(C)=O)C(=O)N3C (configuration not stated)	< 3.70	< 3.70	
O=c1ccc(=Nc2ccc(NNc3ccccc3)cc2)c2c(=O)c3c([N+](=O)[O-])ccc(O)c3c(=O)c1=2	< 4.00	4.75	
O=C(O)c1ccc(P(=O)(O)c2ccc(C(=O)O)cc2Br)c(Br)c1	< 3.70	< 3.70	
O=C1Oc2ccccc2C(=O)/C1=C/N1C(=O)/C(=C/c2ccccc2)NC1=S	< 3.70	< 4.00	
CNC(=O)OCc1cc(C(=O)NCCCNCCCNC(=O)c2ccc([N+](=O)[O-])c(COC(=O)NC)c2)ccc1[N+](=O)[O-]			inactive
Oc1cc(OCCCc2ccc(F)cc2)cc2ccc3ccccc3c12	< 4.26	4.50	
Nc1nc(NC(=O)C2=NS(=O)(=O)c3cc(S(N)(=O)=O)c(Cl)cc3N2)n[nH]1	3.48	3.42	
COCCN(C(=O)c1ccccc1)C1CCC2(SCCS2)c2[nH]c3ccccc3c21 (configuration not stated)	< 3.70	4.62	
CN(C)c1nc(N(C)C)nc(N(C)C23CC4CC(CC(C4)C2)C3)n1	< 3.70	4.19	
Cc1cccc(NC(=O)Nc2ccccc2)n1	< 3.70	4.01	
COC(=O)/C=C1/C(COC(c2ccccc2)(c2ccccc2)c2ccccc2)OC(n2ccc(=O)[nH]c2=O)C1O[Si](C)(C)C(C)(C)C (configuration not stated)	< 3.70	4.97	
Cn1cnc2nc[nH]c2c1=N	< 3.70	< 3.70	
FC(F)(F)C(F)(F)c1nnc(C(F)(F)C(F)(F)F)o1	< 3.70	< 3.70	
COC(=O)C(=O)Cc1nc2ccccc2s1			inactive
Cc1ccc2c3nc4ccccc4c-3csc2c1	6.77	6.44	
O=C1Nc2ccccc2C1S(=O)(=O)c1ccccc1 (configuration not stated)	< 3.86	3.96	
